{
  "source": "patent US10039838B2",
  "about": "“Car peptide for homing, diagnosis and targeted therapy for pulmonary and fibrotic disorders” (Vascular BioSciences, priority 2010, dated 2018)",
  "key": {"[1]": {"tested_on": "MCT induced hypertensive rat lung", "test": "Peptide targeting study in monocrotaline (MCT)-induced pulmonary arterial hypertension, immunohistochemistry", "assay_type": "in vivo", "conditions": "peptide 3.3 mg/kg via tail vein, 2 hours after injection, FIG. 4", "experimental": "A rat model of monocrotaline (MCT)-induced pulmonary arterial hypertension was used for this study. Briefly, male Sprague-Dawley rats (150-200 g, Harlan Laboratories, IN) were administered with a single subcutaneous injection of monocrotaline at 60 mg/kg (Sigma-Aldrich, MO), while control rats were administered 0.9% saline (FIG. 1). Rats were randomly selected and studied for peptide distribution studies on 1, 3, 7, 14 or 21 days after the treatment of monocrotaline.\n(§1) The following peptides were labeled with 5-carboxyfluorescein (5FAM) and used for the lung targeting studies: CAR, 5FAM-CARSKNKDC; VCAM1, CVHSPNKKCGGSK-5FAM; Control, 5FAM-CGGGGGGGC. All peptides were synthesized by Anaspec (Anaspec Inc., CA). Peptides were resolved in PBS at the concentrations of 0.5 mg/mL.\nMCT-treated or untreated rats were injected with peptide solution at a dose of 3.3 mg/kg body weight via the tail vein. […]\nTo determine the localization of the peptides, paraffin-embedded tissue sections were immunostained with either hematoxylin and eosin (FIGS. 2-3) or rabbit anti-fluoroscein isothiocyanate (FITC) antibody (Invitrogen, CA) followed by horseradish peroxidase-labeled anti-rabbit IgG secondary antibody (FIG. 4). […] To quantify the targeting efficiency of the peptides to the lung, the immunostained sections were scanned by Aperio Scanscope XT and analyzed using ImageScope software (Aperio Technologies, CA)."}, "[2]": {"tested_on": "severe occlusive PAH rat model", "test": "Blood pressure tracing, fasudil with CARK", "assay_type": "in vivo", "experimental": "(§2) Severe occlusive PAH rat model was used. Animals were injected with SU5416 (20 mg/kg; SUGEN Inc), followed by 3 weeks hypoxia, then followed by 2-10 weeks normoxia.\nThe peptide administered was a 7 amino acid variant to the CAR peptide used in previous examples. This variant (CARK) consisted of the following sequence: CARSKNK (SEQ ID NO: 2). In these experiments, CARK was administered at a dose of 3 mg/kg and fasudil administered at 1 mg/kg.\nTo measure the acute effects of fasudil with CARK administration on the right and left ventricular systolic pressure (or systolic aortic pressure), blood pressure measurements were performed on catheterized SU5w/hypoxia/normoxia-exposed rats with PAH."}, "[3]": {"tested_on": "mouse lungs after bleomycin injection", "test": "Peptide targeting study in bleomycin-induced acute lung injury and pulmonary fibrosis model, immunohistochemistry", "assay_type": "in vivo", "conditions": "for Distribution of staining in mouse lungs, acute lung injury model / Distribution of staining in mouse lungs, pulmonary fibrosis model: peptide 3.3 mg/kg via tail vein, 2 hours; for Distribution of staining in mouse lungs, pulmonary fibrosis model: 14 days after bleomycin injection, FIGS. 15-17", "experimental": "A mouse model of bleomycin induced acute lung injury and pulmonary fibrosis was used for this study. Briefly, 6 WT C57Bl/6 male mice, 8-12 weeks were weighed and anesthetized, and given bleomycin (BL) intratracheally at 4 U/kg. At 3 days (acute lung injury model) and 14 days (pulmonary fibrosis model) after BL injection, peptides were injected via the tail vein.\nas §1\nBL-treated mice were injected with peptide solution at a dose of 3.3 mg/kg body weight via the tail vein. At two hours after the injection, mice were perfused with PBS containing 1% bovine serum albumin under the deep anesthesia with isofluorane at a rate of 3.0% and euthanized. Tissues were fixed by systemic perfusion with 10% buffered formalin via right ventricle. The lung was inflated by injection of 10% formalin through the trachea. Various organs were excised from the rat and fixed for additional twenty four hours and processed for immunohistochemistry.\nTo determine the localization of the peptides, paraffin-embedded tissue sections were immunostained with rabbit anti-fluoroscein isothiocyanate (FITC) antibody (Invitrogen, CA) followed by horseradish peroxidase-labeled anti-rabbit IgG secondary antibody. The peptide localization was then visualized by diaminobenzidine (DAB). An automated staining system, Discovery XT (Ventana, Ariz.) was used. To quantify the targeting efficiency of the peptides to the lung, the immunostained sections were scanned by Aperio Scanscope XT and analyzed using ImageScope software (Aperio Technologies, CA) (FIGS. 14-17)."}, "[4]": {"tested_on": "severe occlusive PAH rat model", "test": "Blood pressure tracing, imatinib with CAR", "assay_type": "in vivo", "conditions": "CAR 3 mg/kg + imatinib 10 mg/kg, FIG. 25", "experimental": "as §2\nThe peptide administered was CAR, CARSKNKDC (SEQ ID NO: 1). In this experiment, CAR was administered at a dose of 3 mg/kg and imatinib administered at 10 mg/kg.\nTo measure the acute effects of imatinib with CAR administration on the right and left ventricular systolic pressure, blood pressure measurements were performed on catheterized SU5w/hypoxia/normoxia-exposed rats with PAH."}, "[5]": {"tested_on": "cell surface heparan sulfate and heparin", "conditions": "US 20090036349; Jarvinen and Ruoslahti 2007; cited from earlier work"}, "[6]": {"conditions": "3 days after bleomycin injection, FIG. 14"}},
  "note": "“Also recorded” adds a separate entry of the source. Primed or numbered codes have the meaning given here. Where no end group is shown, it is not given here. The star is where a group is joined. 5FAM = O=C1OC2(c3ccc(O)cc3Oc3cc(O)ccc32)c2ccc(C(=O)*)cc21; 5FAM′ = not defined here",
  "data": [
    {"substance": "5FAM-CARSKNKDC (cysteine pairing not given here) [CAR-FITC, CAR peptide labeled with 5-carboxyfluorescein, detected with anti-FITC antibody]", "values": [
      {"measurement": "CAR-FITC staining of alveolar macrophages", "setting": "[1]", "value": "alveolar macrophages take up the stain"}
    ]},
    {"substance": "CARSKNK [CARK]", "values": [
      {"measurement": "Effect of CARK co-administration with fasudil on systolic aortic pressure (SAP)", "setting": "[2]; CARK 3 mg/kg + fasudil 1 mg/kg, compared to fasudil alone, FIG. 22", "value": "only a minor reduction in SAP"},
      {"measurement": "Effect of CARK co-administration with fasudil on LVSP", "setting": "[2]; CARK 3 mg/kg + fasudil 1 mg/kg, compared to fasudil alone, FIG. 23", "value": "only a minor reduction"},
      {"measurement": "Effect of CARK co-administration on RVSP lowering by fasudil", "setting": "[2]; CARK 3 mg/kg + fasudil 1 mg/kg, compared to fasudil alone, FIGS. 22-23", "value": "enhanced the blood pressure lowering effect of fasudil on RVSP"},
      {"measurement": "Effect on RVSP and LVSP of fasudil administered after cessation of CARK infusion", "setting": "[2]; fasudil 10 mg/kg 30 minutes after cessation of CARK infusion, FIG. 24", "value": "sustained, pulmonary-specific effect"}
    ]},
    {"substance": "CARSKNKDC", "values": [
      {"measurement": "Staining intensity of CAR compared with VCAM1, acute lung injury model", "setting": "[3]; [6]", "value": "more intense"},
      {"measurement": "Distribution of staining in mouse lungs, acute lung injury model", "setting": "[3]; [6]", "value": "stain the interstitium and inflammatory cells"},
      {"measurement": "Distribution of staining in mouse lungs, pulmonary fibrosis model", "setting": "[3]", "value": "Interstitial and inflammatory staining is seen in areas of lung fibrosis; also recorded: areas of dense fibrosis and spared areas showing little staining"},
      {"measurement": "Effect of CAR co-administration on RVSP lowering by imatinib", "setting": "[4]", "value": "enhanced the blood pressure lowering effect of imatinib on RVSP"},
      {"measurement": "Effect of CAR co-administration with imatinib on LVSP", "setting": "[4]", "value": "only a minor reduction in LVSP"},
      {"measurement": "Binding to cell surface heparan sulfate and heparin", "setting": "[5]", "value": "binds to cell surface heparan sulfate and heparin"}
    ]},
    {"substance": "CVHSPNKKCGGSK-5FAM (CVHSPNKKCGGSK-{5FAM′}; cysteine pairing not given here) [VCAM1, reference compound]", "values": [
      {"measurement": "Distribution of staining in mouse lungs, acute lung injury model", "setting": "[3]; [6]", "value": "stain the interstitium and inflammatory cells"},
      {"measurement": "Distribution of staining in mouse lungs, pulmonary fibrosis model", "setting": "[3]", "value": "areas of mild fibrosis and spared areas showing little staining"}
    ]}
  ]
}
